Results on 3 molecules are retold here after ChEMBL document CHEMBL3046263, “Isolation, characterization, antibacterial, antihelminthic, and in silico studies of polyprenol from Kirganelia reticulata Baill” (2013).

The structures appear in SMILES notation. In brackets after ≈: the same amount, converted by molar mass.

What all share (assay type): functional
In test [1] the test system is Escherichia coli. The test can be described thus: Antibacterial activity against Escherichia coli assessed as diameter of growth inhibition zone at 100 mg/ml after 24 hr by agar well diffusion method. The settings on record: read-out: DIZ.
In test [2] the test system is Salmonella typhi. In words: Antibacterial activity against Salmonella enterica subsp. enterica serovar Typhi assessed as diameter of growth inhibition zone at 100 mg/ml after 24 hr by agar well diffusion method. The settings on record: read-out: DIZ.
Test [3] deals with Salmonella typhi. In words: Antibacterial activity against Salmonella enterica subsp. enterica serovar Typhi assessed after 24 hr by microbroth dilution method.
Test [4] relates to Pseudomonas aeruginosa. The test can be described thus: Antibacterial activity against Pseudomonas aeruginosa after 24 hr by microbroth dilution method.
Test [5] relates to Staphylococcus aureus. The test can be described thus: Antibacterial activity against Staphylococcus aureus after 24 hr by microbroth dilution method.
Test [6] relates to Escherichia coli. In words: Antibacterial activity against Escherichia coli after 24 hr by microbroth dilution method.
Test [7] concerns Pseudomonas aeruginosa. In words: Antibacterial activity against Pseudomonas aeruginosa assessed as diameter of growth inhibition zone at 100 mg/ml after 24 hr by agar well diffusion method. To be noted: read-out: DIZ.
The test system of test [8] is Staphylococcus aureus. In words: Antibacterial activity against Staphylococcus aureus assessed as diameter of growth inhibition zone at 100 mg/ml after 24 hr by agar well diffusion method. The settings on record: read-out: DIZ.
Test [9] deals with Metaphire posthuma. In words: Antihelminthic activity against Pheretima posthuma assessed as death time at 50 mg/ml (reference value: 198.33 +/-2.61 min).
Test [10] has as its system Metaphire posthuma. In words: Antihelminthic activity against Pheretima posthuma assessed as paralysis time at 50 mg/ml (reference value: 63.33 +/-0.87 min).
Test [11] concerns Metaphire posthuma. The test can be described thus: Antihelminthic activity against Pheretima posthuma assessed as paralysis time at 200 mg/ml (reference value: 63.33 +/-0.87 min).
The test system of test [12] is Metaphire posthuma. In words: Antihelminthic activity against Pheretima posthuma assessed as death time at 200 mg/ml (reference value: 198.33 +/-2.61 min).
Test [13] concerns Metaphire posthuma. The test can be described thus: Antihelminthic activity against Pheretima posthuma assessed as paralysis time at 150 mg/ml (reference value: 63.33 +/-0.87 min).
In test [14] the test system is Metaphire posthuma. The test can be described thus: Antihelminthic activity against Pheretima posthuma assessed as death time at 100 mg/ml (reference value: 198.33 +/-2.61 min).
Test [15] deals with Metaphire posthuma. In words: Antihelminthic activity against Pheretima posthuma assessed as death time at 150 mg/ml (reference value: 198.33 +/-2.61 min).
In test [16] the test system is Metaphire posthuma. The test can be described thus: Antihelminthic activity against Pheretima posthuma assessed as paralysis time at 100 mg/ml (reference value: 63.33 +/-0.87 min).

`O=C(O)c1cn(C2CC2)c2cc(N3CCNCC3)c(F)cc2c1=O` [CIPROFLOXACIN]: the zone of inhibition at 100000 µg/mL with Escherichia coli [1] came out at 10.2 mm; with Salmonella typhi [2] it was 29 mm; in the test with Pseudomonas aeruginosa [7] it was 31.8 mm; in the test with Staphylococcus aureus [8] it was 18.1 mm. In addition, the MBC is 6.25 µg/mL (≈ 18.9 µM) with Salmonella typhi [3], 6.25 µg/mL (≈ 18.9 µM) with Pseudomonas aeruginosa [4], 12.5 µg/mL (≈ 37.7 µM) against Staphylococcus aureus [5] and 12.5 µg/mL (≈ 37.7 µM) against Escherichia coli [6]. For the same molecule, the MIC against Salmonella typhi [3] was 3.12 µg/mL (≈ 9.43 µM).

For the molecule `C1CNCCN1.C1CNCCN1.C1CNCCN1.O.O=C(O)CC(O)(CC(=O)O)C(=O)O.O=C(O)CC(O)(CC(=O)O)C(=O)O` [PIPERAZINE CITRATE], the Time is on record as 40.72 min with Metaphire posthuma [9] and 32.44 min in the test with Metaphire posthuma [10].

On to `C/C(=C/CC/C=C/CO)CC/C=C(/C)CC/C=C(\C)CO` [POLYPRENOL], for which the zone of inhibition at 100000 µg/mL was 5.6 mm in the test with Escherichia coli [1], 13.1 mm in the test with Salmonella typhi [2], 14.7 mm in the test with Pseudomonas aeruginosa [7] and 9.1 mm in the test with Staphylococcus aureus [8]. For the same molecule, the MBC with Salmonella typhi [3] is 12.5 µg/mL (≈ 42.7 µM); with Pseudomonas aeruginosa [4], 12.5 µg/mL (≈ 42.7 µM); against Staphylococcus aureus [5], 25 µg/mL (≈ 85.5 µM); in the test on Escherichia coli [6], 25 µg/mL (≈ 85.5 µM). Also, the MIC in the test on Salmonella typhi [3] came to 6.25 µg/mL (≈ 21.4 µM); with Pseudomonas aeruginosa [4] it was 6.25 µg/mL (≈ 21.4 µM); against Staphylococcus aureus [5], 12.5 µg/mL (≈ 42.7 µM); in the test with Escherichia coli [6], 12.5 µg/mL (≈ 42.7 µM). Moreover, the Time with Metaphire posthuma [11] worked out at 36.17 min; in the test with Metaphire posthuma [9], 81.7 min; with Metaphire posthuma [12] it was 44.47 min; with Metaphire posthuma [10], 51.57 min; with Metaphire posthuma [13] it was 39.63 min; with Metaphire posthuma [14], 55.13 min. Further, the results for the Time in the test on Metaphire posthuma [15] and in the test on Metaphire posthuma [16] were 48.5 min and 43.37 min, respectively.
